Experimental data taken from patent US20220073557A1, “FLUORINATED BILE ACIDS” (NZP UK LIMITED, priority 2018, published 2022).

Key:
[1] = test system: sporadic PD patient fibroblasts; assay: Cellular ATP levels (ATPlite, normalised to CyQUANT DNA content) in sporadic PD patient fibroblasts; format: cell-based; details: Homo sapiens, Fibroblast, 24 h
Procedure: Fibroblasts were cultured in DMEM (Invitrogen) and routinely subcultured every 3-5 days using trypsin to dissociate them.
The ATP protocol is generally as described in Mortiboys et al, “Mitochondrial function and morphology are impaired in parkin-mutant fibroblasts”, Ann Neurol. 2008 November; 64(5):555-65. Briefly, fibroblasts were cultured as and plated into white 384 well plates with 5000 cells per well in 50 μl of media volume. The plates are left overnight in an incubator to allow the fibroblasts to adhere to the plate surface. The following morning the Glucose based medium is replaced with 25 μl of Galactose based medium. The compounds are added to the plates using a ECHO 550 liquid handling system. The wells were dosed to provide an 8-point concentration range of 0.06 nM-300 nM of compound. After dosing the wells are topped up with a further 25 μl of Galactose based medium and then left in an incubator for 24 hours. Following this incubation the medium is removed from the plate and the wells are washed twice with sterile PBS. The wells are filled with 25 μl of Sterile PBS followed by 12.5 μl of Lysis solution from the ATPlite™ Luminescence ATP detection assay system (Perkin Elmer), including 16 cell free wells to use as blank controls. The plate is then placed on a rotary shaker for 5 mins at 700 rpm. Following the shaking 12.5 μl of ATP substrate solution (Perkin Elmer) is added to each well and a further 5 min of shaking. The plate is then placed in darkness for 10 minutes prior to reading. Using a PHERAStar® plate reader, luminescence intensity is recorded. Following the ATP assay the plates are immediately assayed for DNA content in a CyQUANT® assay.
Immediately following The ATP assay DNA content is assessed with the CyQUANT® NF Cell Proliferation Assay Kit (ThermoFisher). CyQUANT® buffer is prepared immediately before the assay and is comprised of 1 ul CyQUANT® dye per ml×1 HBSS solution. 12.5 ul of CyQUANT® buffer is added to each well. Plate left in incubator for 1 hour then read on a PHERAStar® Plate reader with excitation at 497 nm and emission at 520 nm. ATP Quantification for each well is determined using the following formula: […]
After the assays had been repeated in triplicate per line and compound the data was then inputted into Graph pad Prism 7 software suite where a dose response curve is generated using the default “[Agonist] vs response (three parameters)” equation.
From this EC50 values, lowest response and maximal response were taken and used to calculate the Geometric mean between the 5 different lines assessed.
Cellular ATP levels were measured in fibroblasts from 6 (Table 3) or 3 (Table 4) patients with sporadic Parkinson's disease when treated with Compounds of the invention or Comparator compounds. The results are shown in Tables 3 and 4, where “Bottom”=max response with lowest dose of compound (0.06 nM) and “top”=max response with highest dose of compound (300 nM).

[2] = test system: sporadic PD patient fibroblast lines; assay: Seahorse assay (oxygen consumption, extracellular acidification rate) in sPD fibroblasts; format: cell-based, human
Procedure: Fibroblasts are plated into Seahorse 24 well plates with 50,000 cells per well. Cells are left to attach for 2 days. Media is changed to Seahorse DMEM media with glucose and sodium pyruvate and left to equilibrate at 37 degrees normal air CO2 for 1 hour. The plate is entered into the Seahorse machine and run on a program of mix (2 minutes), wait (3 minutes) and measure (3 minutes). After three measurements of basal respiration and ECAR; 0.5 μM oligomycin is injected after which another three measurements are taken; then 0.5 μM of FCCP is injected and three measurements taken and finally 1 μM rotenone is injected and three measurements taken. After all measurements are complete, cells are stained with 10 μM Hoescht and imaged using the InCell to count the number of cells per well for normalisation. This classical ritochondrial stress test experimental protocol allows us to calculate the basal mitochondrial respiration, ATP linked respiration (the amount which is coupled to ATP generation), the maximal and spare respiratory capacity, the non-mitochondrial respiration rate and the extracellular acidification rate which is a proxy measure of glycosolysis.

[3] = test system: mitochondrial respiratory chain complex I; assay: Complex I assay, left striatum brain homogenate of mice dosed with or without MPTP; format: in vivo, mouse; details: for Complex I activity with concurrent MPTP treatment: left striatum
Procedure: Ex vivo mice brain was homogenated in a buffer of 250 mM sucrose, 20 mM HEPES, 3 mM EDTA, pH 7.5 at 4° C. Homogenisation was carried out using a Dounce homogenizer, for cortex samples, and by repetitive passage through a 0.5 mm syringe for isolated striatum. Samples were then incubated with 30 μl of detergent from the AbCam colorimetric Complex I assay kit on ice for 20 minutes. Samples are then centrifuged at 13,000 rpm for 30 mins. Triplicate samples per condition were blocked using the kit blocking buffer on the AbCam colorimetric Complex I assay kit plate for 3 hours. Samples are then washed using the kit wash buffer 3 times before the addition of the kit assay buffer containing NADH and colorimetric dye. The assay plate is read on a plate reader in a kinetic assay programme reading 450 nm in a 30 second interval for 50 minutes.

[4] = test system: dopaminergic neurons derived from sPD patients (iNeurons); assay: Dopamine ELISA in iNeurons; format: cell-based, human; details: untreated sPD 0
Procedure: Briefly, iNPCs are plated in a 6-well plate and cultured for 2 days in DMEM/F-12 medium with Glutamax™ supplemented with 1% NEAA, 2% B27 (Gibco) and 2.5 μM of DAPT. On day 3, DAPT is removed and the medium is supplemented with 1 μM smoothened agonist (SAG) and FGF8 (75 ng/ml) for additional 10 days. Neurons are replated at this stage. Subsequently SAG and FGF8 are withdrawn and replaced with BDNF (30 ng/ml), GDNF (30 ng/ml), TGF-b3 […] and dcAMP (2 mM, Sigma) for 15 days.
Dopamine ELISA is performed using Dopamine research ELISA kit (Labor Diagnostika Nord GmbH&Co. KG) as per manufacturers instructions. Dopamine release is obtained incubating the cells at 37° C. using three different conditions at the same time per line. Medium is removed in all wells then the first well is incubated with HBSS with Ca^2+ and Mg^2+ (Gibco by Life Technologies) for 30 minutes, the second well is incubated in HBSS with Ca^2+ and Mg^2+ for 15 minutes and then 56 mM KCl (Fisher chemical) is added for another 15 minutes and the third well is incubated with HBSS without Ca^2+ and Mg^2+ (Gibco by Life Technologies) but with 2 mM EDTA for 15 min and then 56 mM KCl is added for another 15 minutes. Straight away media is collected in an eppendorf and cells are harvested using Accutase®, centrifuge at 400 g for 4 min and resuspended in 10 μl of PBS. […]

With `C[C@H](CCC(=O)O)[C@H]1CC[C@H]2[C@@H]3[C@@H](O)C[C@@H]4C[C@@H](O)C(F)(F)C[C@]4(C)[C@H]3CC[C@]12C` [Compound 7, 2,2-difluoro-3β,7β-dihydroxy-5β-cholanic acid] the activity at 60 pM ([1]; read-out: Cellular ATP levels Bottom (% of vehicle treated)) was 112%, the EC50 ([1]; read-out: Cellular ATP levels EC50 (nM)) was 0.429 nM and the activity at 0.3 µM ([1]; read-out: Cellular ATP levels Top (% of vehicle treated)) was 172%. The “Mitochondrial respiration (basal, maximal and ATP linked respiration; oxygen consumption)” value ([2]; 6 sPD fibroblast lines, dosed at EC90 (UDCA 100 nM, Compound 7 50 nM), FIG. 1A-1C) was “significantly improves all three mitochondrial parameters”, the “Extracellular acidification rate (ECAR, proxy measure of glycolysis)” value ([2]; 6 sPD fibroblasts, FIG. 2) was “significantly improved” and the EC90 ([2]; Homo sapiens, Fibroblast, read-out: EC90 concentration) was 50 nM. For the same compound, the “Increase in complex I activity over untreated controls” value ([3]; left striatum mouse brain homogenate, Vehicle+12 mg Compound 7 alone, FIG. 4) was “approximately 30%”, the “Complex I activity with concurrent MPTP treatment” value ([3]; MPTP + 1 mg Compound 7, p<0.01 vs MPTP alone) was “retains complex I at normal levels” and the “Complex I activity with concurrent MPTP treatment” value ([3]; MPTP + increased doses (4 mg, 12 mg) of Compound 7) was “appears to prevent any loss of complex I activity by MPTP”. The “Dopamine level (increase in dopamine release)” value [4] was ~5% increase in.
